System: HA-specific peptide (9-mer)
Conditions: mouse, in vivo

With `CCCCCCCCCCCCCCCCCCCCCCCCCC(=O)N[C@@H](CO[C@H]1O[C@H](CO)[C@H](O)[C@H](O)[C@H]1O)[C@H](O)[C@H](O)CCCCCCCCCCCCCC` [C1, α-Galactosyl ceramide, reference compound] the IFN-γ secreting cells was “increased”.
